From patent publication US6878722B2, “Substituted cycloalkyl P1′ hepatitis C virus inhibitors” (Bristol-Myers Squibb Company, priority 2002, dated 2005)

Tests used:
[1] = system: HCV replicon in Huh7 cells; assay: HCV replicon cell-based assay (FRET); conditions: Hepatitis C virus, Huh-7; HCV replicon; read-out: EC50 range
Method in brief: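 Huh7 cells stably carrying a genotype 1b HCV replicon (IRES-neo-EMCV-IRES-NS3-NS5B) were treated with compound for 4 days at 37 °C in 0.5% DMSO final. Lysates containing 10 μM FRET peptide RET S1 were read kinetically at 340/490 nm to give NS3 protease activity, from which EC50 was derived.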

[2] = biological target: T1, HCV NS3/4A protease complex (BMS strain, genotype 1a) (Hepatitis C virus genotype 1a, UniProt P27958, C1454S); assay: Recombinant HCV NS3/4A protease complex FRET peptide assay, BMS strain; type: biochemical; conditions: IC50 range, NS3/4A BMS Strain
T1 construct: DNA encoding the recombinant HCV NS3/4A protease complex (amino acids 1027 to 1711) for these strains; inferred from the pET21b vector and Ni-NTA purification; made in house; host or cells: Escherichia coli BL21 (DE3), pET21b
T1 sequence (P27958 1658-1714, looked up, stated change not applied): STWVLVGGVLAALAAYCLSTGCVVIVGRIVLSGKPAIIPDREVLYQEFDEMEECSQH
T1 sequence (P27958 1027-1657, looked up, stated change not applied): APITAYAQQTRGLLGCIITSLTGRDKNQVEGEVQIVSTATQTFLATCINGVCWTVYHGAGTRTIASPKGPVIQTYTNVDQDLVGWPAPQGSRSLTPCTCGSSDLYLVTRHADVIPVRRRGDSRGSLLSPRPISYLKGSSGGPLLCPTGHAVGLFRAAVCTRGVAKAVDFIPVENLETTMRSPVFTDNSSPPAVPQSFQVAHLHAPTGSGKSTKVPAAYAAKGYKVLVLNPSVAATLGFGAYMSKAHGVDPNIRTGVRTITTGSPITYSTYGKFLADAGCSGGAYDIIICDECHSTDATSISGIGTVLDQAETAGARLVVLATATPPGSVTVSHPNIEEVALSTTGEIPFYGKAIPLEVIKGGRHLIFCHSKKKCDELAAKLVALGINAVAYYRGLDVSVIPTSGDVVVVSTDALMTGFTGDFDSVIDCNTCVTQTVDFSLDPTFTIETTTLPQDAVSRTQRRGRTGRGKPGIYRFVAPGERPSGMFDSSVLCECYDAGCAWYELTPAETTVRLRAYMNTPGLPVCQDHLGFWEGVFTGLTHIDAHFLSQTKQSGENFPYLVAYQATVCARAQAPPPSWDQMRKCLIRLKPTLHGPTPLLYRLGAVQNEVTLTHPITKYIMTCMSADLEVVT
Method in brief: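 Recombinant NS3/4A complex (aa 1027–1711) with C-terminal three-lysine tail, C1711G and C1454S, expressed in E. coli BL21(DE3) and purified by Ni-NTA then Superdex-S200. Inhibition of the complex from each strain measured in vitro by FRET peptide cleavage.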

Row | Structure (SMILES) | EC50 [1] [nM] | IC50 [2] [nM]
1 | C=C[C@@H]1C[C@]1(NC(=O)[C@@H]1C[C@@H](Oc2cc(C3CC3)nc3cc(OC)ccc23)CN1C(=O)[C@@H](NC(=O)OC(C)(C)C)C(C)(C)C)C(=O)NS(=O)(=O)C1(CC#CCC)CC1 [Compound 69, (1-{4-(2-Cyclopropyl-7-methoxy-quinolin-4-yloxy)-2-[1-(1-pent-2-ynyl-cyclopropanesulfonylaminocarbonyl)-2-vinyl-cyclopropylcarbamoyl]-pyrrolidine-1-carbonyl}-2,2-dimethyl-propyl)-carbamic acid tert-butyl ester] | < 50 | < 50
2 | C=C[C@@H]1C[C@]1(NC(=O)[C@@H]1C[C@@H](Oc2ccnc3cc(Cl)ccc23)CN1C(=O)[C@@H](NC(=O)OC1CCCC1)C(C)(C)C)C(=O)NS(=O)(=O)C1(CC2CC2)CC1 [Compound 66, (1-{4-(7-Chloro-quinolin-4-yloxy)-2-[1-(1-cyclopropylmethyl-cyclopropanesulfonylaminocarbonyl)-2-vinyl-cyclopropylcarbamoyl]-pyrrolidine-1-carbonyl}-2,2-dimethyl-propyl)-carbamic acid cyclopentyl ester] | 50 to 500 | < 50
3 | C=CC1C[C@]1(NC(=O)[C@@H]1C[C@@H](Oc2cc(-c3ccccc3)nc3cc(OC)ccc23)CN1C(=O)[C@@H](NC(=O)OC(C)(C)C)C(C)(C)C)C(=O)NS(=O)(=O)C1(CC2CC2)CC1 (stereo partly drawn) [Compound 8, {1-[2-[1-(1-Cyclopropylmethyl-cyclopropanesulfonylaminocarbonyl)-2-vinyl-cyclopropylcarbamoyl]-4-(7-methoxy-2-phenyl-quinolin-4-yloxy)-pyrrolidine-1-carbonyl]-2,2-dime-thylpropyl}-carbamic acid tert-butyl ester] | < 50 | < 50
4 | C=C[C@@H]1C[C@]1(NC(=O)[C@@H]1C[C@@H](Oc2cc(-c3ccccc3)nc3cc(OC)ccc23)CN1C(=O)[C@@H](NC(=O)C1CCOCC1)C(C)(C)C)C(=O)NS(=O)(=O)C1(Cc2ccccc2)CC1 [Compound 60, 1-{3,3-Dimethyl-2-[(tetrahydro-pyran-4-carbonyl)-amino]-butyryl}-4-(7-methoxy-2-phenyl-quinolin-4-yloxy)-pyrrolidine-2-carboxylic acid [1-(1-benzyl-cyclopropanesulfonylaminocarbonyl)-2-vinyl-cyclopropyl]-amide] | 500 to 5000 | < 50
5 | C=C[C@@H]1C[C@]1(NC(=O)[C@@H]1C[C@@H](Oc2ccnc3cc(Cl)ccc23)CN1C(=O)[C@@H](NC(=O)OC1CCCC1)C(C)(C)C)C(=O)NS(=O)(=O)C1(CCCC)CC1 [Compound 65, {1-[2-[1-(1-Butyl-cyclopropanesulfonylaminocarbonyl)-2-vinyl-cyclopropylcarbamoyl]-4-(7-chloro-quinolin-4-yloxy)-pyrrolidine-1-carbonyl]-2,2-dimethyl-propyl}-carbamic acid cyclopentyl ester] | 50 to 500 | < 50
6 | C=C[C@@H]1C[C@]1(NC(=O)[C@@H]1C[C@@H](Oc2cc(-c3ccccc3)nc3cc(OC)ccc23)CN1C(=O)[C@@H](NC(=O)CC(C)(C)C)C(C)(C)C)C(=O)NS(=O)(=O)C1(Cc2ccccc2)CC1 [Compound 110] | 50 to 500 | 50 to 500
7 | C=C[C@@H]1C[C@]1(NC(=O)[C@@H]1C[C@@H](Oc2cc(-c3ccccc3)nc3cc(OC)ccc23)CN1C(=O)[C@@H](NC(=O)OC(C)(C)C)C(C)(C)C)C(=O)NS(=O)(=O)C1(Cc2ccc(F)cc2)CC1 [Compound 40, {1-[2-{1-[1-(4-Fluoro-benzyl)-cyclopropanesulfonylaminocarbonyl]-2-vinyl-cyclopropylcarbamoyl}-4-(7-methoxy-2-phenyl-quinolin-4-yloxy)-pyrrolidine-1-carbonyl]-2,2-dimethyl-propyl}-carbamic acid tert-butyl ester] | 50 to 500 | < 50
8 | C=C[C@@H]1C[C@]1(NC(=O)[C@@H]1C[C@@H](Oc2cc(-c3ccccc3)nc3cc(OC)ccc23)CN1C(=O)[C@@H](NC(=O)CC1CC1)C(C)(C)C)C(=O)NS(=O)(=O)C1(Cc2ccccc2)CC1 [Compound 58, 1-[2-(2-Cyclopropyl-acetylamino)-3,3-dimethyl-butyryl]-4-(7-methoxy-2-phenyl-quinolin-4-yloxy)-pyrrolidine-2-carboxylic acid [1-(1-benzyl-cyclopropanesulfonylaminocarbonyl)-2-vinyl-cyclopropyl]-amide] | 50 to 500 | < 50
9 | C=C[C@@H]1C[C@]1(NC(=O)[C@@H]1C[C@@H](Oc2cc(-c3ccccc3)nc3cc(OC)ccc23)CN1C(=O)[C@@H](NC(=O)Oc1ccccc1)C(C)(C)C)C(=O)NS(=O)(=O)C1(Cc2ccccc2)CC1 [Compound 101] | 500 to 5000 | 50 to 500
10 | C=C[C@@H]1C[C@]1(NC(=O)[C@@H]1C[C@@H](Oc2cc(-c3ccccc3)nc3cc(OC)ccc23)CN1C(=O)[C@@H](NC(=O)OC(C)(C)C)C(C)(C)C)C(=O)NS(=O)(=O)C1(Cc2ccccc2F)CC1 [Compound 41, {1-[2-{1-[1-(2-Fluoro-benzyl)-cyclopropanesulfonylaminocarbonyl]-2-vinyl-cyclopropylcarbamoyl}-4-(7-methoxy-2-phenyl-quinolin-4-yloxy)-pyrrolidine-1-carbonyl]-2,2-dimethyl-propyl}-carbamic acid tert-butyl ester] | 50 to 500 | < 50
11 | C=C[C@@H]1C[C@]1(NC(=O)[C@@H]1C[C@@H](Oc2cc(-c3ccccc3)nc3cc(OC)ccc23)CN1C(=O)[C@@H](NC(=O)Oc1ccccc1OC)C(C)(C)C)C(=O)NS(=O)(=O)C1(Cc2ccccc2)CC1 [Compound 107] | 500 to 5000 | 50 to 500
12 | C=C[C@@H]1C[C@]1(NC(=O)[C@@H]1C[C@@H](Oc2cc(-c3ccccc3)nc3cc(OC)ccc23)CN1C(=O)[C@@H](NC(=O)OC(C)(C)C)C(C)(C)C)C(=O)NS(=O)(=O)C1(CCOCc2ccccc2)CC1 [Compound 36, {1-[2-{1-[1-(2-Benzyloxy-ethyl)-cyclopropanesulfonylaminocarbonyl]-2-vinyl-cyclopropylcarbamoyl}-4-(7-methoxy-2-phenyl-quinolin-4-yloxy)-pyrrolidine-1-carbonyl]-2,2-dimethyl-propyl}-carbamic acid tert-butyl ester] | < 50 | < 50
13 | C=CC1C[C@]1(NC(=O)[C@@H]1C[C@@H](Oc2cc(-c3ccccc3)nc3cc(OC)ccc23)CN1C(=O)[C@@H](NC(=O)OC(C)(C)C)C(C)(C)C)C(=O)NS(=O)(=O)C1(C2=CCCCC2)CC1 (stereo in doubt) [Compound 3, {1-[2-[1-(1-Cyclohex-1-enyl-cyclopropanesulfonylaminocarbonyl)-2-vinylcyclopropylcarbamoyl]-4-(7-methoxy-2-phenyl-quinolin-4-yloxy)pyrrolidine-1-carbonyl]-2,2-dimethylpropyl}carbamic acid tert-butyl ester] | 50 to 500 | 50 to 500
14 | COc1ccc2c(O[C@@H]3C[C@@H](C(=O)NC4(C(=O)NS(=O)(=O)C5(C6=CCCCC6)CC5)CC4)N(C(=O)[C@@H](NC(=O)OC(C)(C)C)C(C)(C)C)C3)cc(-c3ccccc3)nc2c1 [Compound 76, {1-[2-[1-(1-Cyclohex-1-enyl-cyclopropanesulfonylaminocarbonyl)-cyclopropylcarbamoyl]-4-(7-methoxy-2-phenyl-quinolin-4-yloxy)-pyrrolidine-1-carbonyl]-2,2-dimethyl-propyl}-carbamic acid tert-butyl ester] | 500 to 5000 | 50 to 500
15 | COc1ccc2c(O[C@@H]3C[C@@H](C(=O)N[C@]4(C(=O)NS(=O)(=O)C5(CC6CC6)CC5)CC4C4CC4)N(C(=O)[C@@H](NC(=O)OC(C)(C)C)C(C)(C)C)C3)cc(-c3ccccc3)nc2c1 (stereo partly drawn) [Compound 205] | 50 to 500 | < 50
16 | C=C[C@@H]1C[C@]1(NC(=O)[C@@H]1C[C@@H](Oc2cc(-c3ccccc3)nc3cc(OC)ccc23)CN1C(=O)[C@@H](NC(=O)OC(C)(C)C)C(C)(C)C)C(=O)NS(=O)(=O)C1(Cc2ncoc2-c2ccccc2)CC1 [Compound 46] | < 50 | < 50
17 | C=C[C@@H]1C[C@]1(NC(=O)[C@@H]1C[C@@H](Oc2cc(-c3ccccc3)nc3cc(OC)ccc23)CN1C(=O)[C@@H](NC(=O)OC(C)(C)C)C(C)(C)C)C(=O)NS(=O)(=O)C1(Cc2c(C)noc2C)CC1 [Compound 50, {1-[2-{1-[1-(3,5-Dimethyl-isoxazol-4-ylmethyl)-cyclopropanesulfonylaminocarbonyl]-2-vinyl-cyclopropylcarbamoyl}-4-(7-methoxy-2-phenyl-quinolin-4-yloxy)-pyrrolidine-1-carbonyl]-2,2-dimethyl-propyl}-carbamic acid tert-butyl ester] | 500 to 5000 | 50 to 500
18 | C=C[C@@H]1C[C@]1(NC(=O)[C@@H]1C[C@@H](Oc2cc(-c3csc(NC(C)C)n3)nc3cc(OC)ccc23)CN1C(=O)[C@@H](NC(=O)OC(C)(C)C)C(C)(C)C)C(=O)NS(=O)(=O)C1(CC2CC2)CC1 [Compound 80, (1-{2-[1-(1-Cyclopropylmethyl-cyclopropanesulfonylaminocarbonyl)-2-vinyl-cyclopropylcarbamoyl]-4-[2-(2-isopropylamino-thiazol-4-yl)-7-methoxy-quinolin-4-yloxy]-pyrrolidine-1-carbonyl}-2,2-dimethyl-propyl)-carbamic acid tert-butyl ester] | 50 to 500 | < 50
